From paper PMC10921007 (Cancer Science, 2023)
pKd: −log10 of the molar value.

Molecular target: T1, SHCBP1 (Homo sapiens, UniProt Q8NEM2)
T1 sequence (Q8NEM2 2-672): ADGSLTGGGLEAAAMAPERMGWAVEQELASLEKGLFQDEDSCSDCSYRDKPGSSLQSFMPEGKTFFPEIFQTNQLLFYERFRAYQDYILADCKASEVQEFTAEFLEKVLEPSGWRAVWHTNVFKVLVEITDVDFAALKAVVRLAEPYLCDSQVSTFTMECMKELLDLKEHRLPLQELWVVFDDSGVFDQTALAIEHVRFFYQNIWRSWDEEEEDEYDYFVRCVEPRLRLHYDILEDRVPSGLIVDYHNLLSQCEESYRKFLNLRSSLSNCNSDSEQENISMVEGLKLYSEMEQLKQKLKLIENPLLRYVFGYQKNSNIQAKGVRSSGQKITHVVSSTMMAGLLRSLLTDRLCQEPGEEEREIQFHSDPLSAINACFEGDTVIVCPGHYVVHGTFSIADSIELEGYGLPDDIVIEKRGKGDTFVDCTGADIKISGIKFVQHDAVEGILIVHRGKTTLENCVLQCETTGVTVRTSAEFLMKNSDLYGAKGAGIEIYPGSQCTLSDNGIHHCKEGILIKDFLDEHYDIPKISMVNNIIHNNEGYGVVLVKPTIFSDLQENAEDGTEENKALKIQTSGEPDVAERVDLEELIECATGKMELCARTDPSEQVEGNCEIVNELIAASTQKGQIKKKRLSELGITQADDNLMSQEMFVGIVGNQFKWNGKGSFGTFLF
Assay: microscale thermophoresis
Assay type: binding

CN[C@@H](C)C(=O)N[C@H](C(=O)N1CCC[C@H]1C(=O)N[C@H]1c2ccccc2C[C@H]1OCC#CC#CCO[C@@H]1Cc2ccccc2[C@@H]1NC(=O)[C@@H]1CCCN1C(=O)[C@@H](NC(=O)[C@H](C)NC)C1CCCCC1)C1CCCCC1 [AZD5582]
pKd: 5.92
